Measurements taken from patent US20070021509A1, “Phosphate transport inhibitors” (priority 2001, published 2007).

test system: phosphate uptake by rabbit intestinal Brush Border Membrane Vesicles (BBMV); test: 33PO4 uptake in rabbit intestinal BBMV (HTS), phosphate transporter inhibition in vitro; assay type: biochemical; conditions: Table 3, 100 μM compound
Protocol: The following example outlines the procedures required for in vitro measurement of the inhibition of phosphate uptake by rabbit intestinal Brush Border Membrane Vesicles (BBMV).
Rabbit Intestinal Brush Border Membrane Vesicles (BBMV) were isolated from mucosal scrapings of the upper small intestine (duodenum) of male New Zealand White rabbits. The scrapings were divided into 2 g aliquots in cryopreservation vials, frozen in liquid nitrogen, and stored at −80° C.
The following procedure was performed for each 2 g sample of BBMV mucosal scraping. Buffer volumes and container sizes were adjusted appropriately for the number of 2 g samples used. The entire preparation was performed on ice, unless otherwise stated.
Mucosal scrapings (2 g per tube) were thawed in a 37° C. water bath for 3 minutes and then placed on ice. The scrapings were suspended with a total of 7.5 ml of 300 MET, and transferred to a 250 mL Corning tube on ice. To the suspension was added 30 mL cold (4° C.) deionized water (dH20). The suspension was homogenized with a tissue homogenizer (Polytron) on high speed for 2 minutes. A stir bar and MgCl2 (81.3 mg) was added. The suspension was mixed well by inverting the closed tube. The suspension was stirred on ice, ensuring that a good vortex is achieved with the stir bar, for 40 minutes. The suspension was transferred to a chilled centrifuge tube and spun at 4000×g for 15 minutes. The supernatant was transferred to a new chilled centrifuge tube and spun at 32000×g for 30 minutes. The supernatant was discarded and the pellet was re-suspended with 34 mL cold 60 MET. The suspension was homogenized with a Dounce homogenizer with 8 strokes. The suspension was transferred to a fresh 250 mL Corning tube. A stir bar and 69.1 mg MgCl2 were added. The suspension was stirred well on ice for 10 minutes. The suspension was transferred to a chilled centrifuge tube and spun at 4000×g for 15 minutes. The supernatant was transferred to a new chilled centrifuge tube and spun at 32000×g for 30 minutes. The supernatant was discarded. At this stage, the preparation could be continued or this pellet (P4) could be frozen in liquid nitrogen and stored at −80° C. When needed, this pellet could be allowed to thaw at room temperature for 5 minutes. Continuing the preparation, the pellet was re-suspended with 34 mL cold 280 MH. The suspension was homogenized in a Dounce homogenize with 8 strokes. The suspension was transferred to a new chilled centrifuge tube and spun at 32000×g for 30 minutes. The supernatant was discarded. To the pellet was added 500 μL 280 MH and the pellet was re-suspended very carefully with a 1 mL tuberculin syringe with a 25-gauge needle with care not to create bubbles. Once the entire pellet was suspended, the suspension was transferred to a chilled 1.5 mL microfuge tube. The suspension was evenly dispersed by bringing the suspension up into the syringe through the 25-gauge needle, and back out again 8 times with care not to create bubbles. The total protein concentration was determined by performing a Bradford Protein Assay. Using that value, the BBMV were diluted with 280 MH to reach approximately 0.5-2.0 mg/mL. The solution was used as soon as possible for uptake studies.
The following experiment was performed using a Beckman Multimek 96-tip robotic pipettor. The following outlines the preparation required to screen one 96-well plate of compounds. However, multiple plates could be screened in one experiment.
To the “Uptake Buffers” was added ^33PO4 to reach 200,000 CPM/19 μL. The buffer solutions were stored at room temperature. The following control solutions were prepared and placed into appropriate wells of a polypropylene, 96-well V-bottom plate (“Hot Stock Plate”):
a. Maximum activity (MAX)−Na Uptake buffer+^33PO4 at 200,000 CPM/19 μL
b. Midline activity (MID)−MAX+100 μM KH2PO4, pH 7.4
c. Minimum activity (MIN)− K Uptake buffer+^33PO4 at 200,000 CPM/19 μL

Compound	% Inhib. At 100 μM [%]
CSc1ccc(NS(=O)(=O)c2ccc(OC(F)(F)F)cc2)cc1 [Compound 128]	88
O=S(=O)(Nc1ccc(Oc2ccccc2)cc1)c1ccc(OC(F)(F)F)cc1 [Compound 129]	84
CN(C)c1ccc(NS(=O)(=O)c2cc(C(F)(F)F)cc(C(F)(F)F)c2)cc1 [Compound 130]	81
O=S(=O)(Nc1ccc(C(F)(F)F)cc1)c1ccc(NS(=O)(=O)c2ccc(C(F)(F)F)cc2)cc1 [Compound 131]	80
O=S(=O)(Nc1cccc(Cl)c1)c1ccc(OC(F)(F)F)cc1 [Compound 132]	79
O=S(=O)(NCc1ccccc1Cl)c1ccc(OC(F)(F)F)cc1 [Compound 133]	77
O=S(=O)(Nc1ccccc1-n1cccc1)c1ccc(OC(F)(F)F)cc1 [Compound 134]	76
O=S(=O)(c1ccccc1)n1ccc2ccccc21 [Compound 135]	76
Nc1cc(Br)ccc1N(c1ccc(OC(F)(F)F)cc1)S(=O)(=O)c1ccc(OC(F)(F)F)cc1 [Compound 136]	76
CCOC(=O)c1cc2cccc(NS(=O)(=O)c3ccc(OC(F)(F)F)cc3)c2[nH]1 [Compound 137]	74
CC(C)(C)c1ccc(NS(=O)(=O)c2ccc(OC(F)(F)F)cc2)cc1 [Compound 138]	71
O=S(=O)(c1ccc(Cl)cc1)N1CCCc2ccccc21 [Compound 139]	70
O=S(=O)(c1ccc(Cl)cc1)N1CCc2ccccc21 [Compound 140]	69
Cc1ccc2c(c1)CCCN2S(=O)(=O)c1ccc(C(C)(C)C)cc1 [Compound 141]	68
Cc1ccc(NS(=O)(=O)c2ccc(OC(F)(F)F)cc2)cc1 [Compound 142]	67
O=S(=O)(c1ccccc1)n1nnc2ccccc21 [Compound 143]	64
Cc1cc(C)c(S(=O)(=O)n2cc(/C=C/C(=O)O)c3ccccc32)c(C)c1 [Compound 144]	64
O=S(=O)(Nc1cc(C(F)(F)F)c(Cl)cc1Cl)c1cc(C(F)(F)F)cc(C(F)(F)F)c1 [Compound 146]	62
O=[N+]([O-])c1cc(Br)ccc1NS(=O)(=O)c1ccc(OC(F)(F)F)cc1 [Compound 147]	61
O=c1sc2ccccc2n1S(=O)(=O)c1ccccc1 [Compound 148]	60
O=S(=O)(Nc1ccccc1Br)c1ccc(OC(F)(F)F)cc1 [Compound 149]	57
Nc1cc(Br)ccc1NS(=O)(=O)c1ccc(OC(F)(F)F)cc1 [Compound 150]	57
O=S(=O)(Nc1c(F)cc(Br)cc1F)c1ccc(OC(F)(F)F)cc1 [Compound 151]	54
Cc1ccc(S(=O)(=O)N2CCC(=O)c3ccc(Cl)cc32)cc1 [Compound 152]	54

Compound	% Inhib. At 100 μM [%]
O=S(=O)(NCc1ccc(F)cc1F)c1ccc(OC(F)(F)F)cc1 [Compound 153]	53
Cc1ccc(S(=O)(=O)n2cc(/C=C/C(=O)O)c3ccccc32)cc1 [Compound 154]	52
O=S(=O)(c1ccc2ccccc2c1)N1CCc2ccccc21 [Compound 155]	51
O=[N+]([O-])c1ccc(NS(=O)(=O)c2ccc(OC(F)(F)F)cc2)cc1 [Compound 156]	46
C[S+]([O-])c1ccc2c(c1)CCN2S(=O)(=O)c1cccc(C(F)(F)F)c1 (stereo not shown) [Compound 157]	37
CC(=O)Nc1ccc(S(=O)(=O)N2CCCc3ccccc32)cc1 [Compound 158]	37
O=S(=O)(Nc1ccccc1)c1ccccc1 [Compound 159]	36
O=[N+]([O-])c1cc(Br)ccc1N(c1ccc(OC(F)(F)F)cc1)S(=O)(=O)c1ccc(OC(F)(F)F)cc1 [Compound 160]	34
O=C1OCc2ccc(NS(=O)(=O)c3ccc(C(F)(F)F)cc3)cc21 [Compound 161]	29
O=S(=O)(Nc1ccc(F)cc1F)c1cc(C(F)(F)F)cc(C(F)(F)F)c1 [Compound 162]	29
Cc1ccc(CNS(=O)(=O)c2ccc(OC(F)(F)F)cc2)cc1 [Compound 163]	26
O=[N+]([O-])c1ccc(S(=O)(=O)n2cnc3ccccc32)cc1 [Compound 164]	26
COc1ccc2c(c1)C(=O)CCN2S(=O)(=O)c1ccc(C)cc1 [Compound 165]	25
NC(=O)c1ccccc1NS(=O)(=O)c1ccc(OC(F)(F)F)cc1 [Compound 166]	22
CSc1ccc(N(c2ccc(OC(F)(F)F)cc2)S(=O)(=O)c2ccc(OC(F)(F)F)cc2)cc1 [Compound 167]	21
O=S(=O)(Nc1ccccn1)c1ccc(OC(F)(F)F)cc1 [Compound 168]	16
O=C(Nc1ccc(Br)cc1C(F)(F)F)c1cc(Br)ccc1NS(=O)(=O)c1ccc(OC(F)(F)F)cc1 [Compound 169]	106
COc1cc([N+](=O)[O-])ccc1NC(=O)c1cc(Br)ccc1NS(=O)(=O)c1ccc(OC(F)(F)F)cc1 [Compound 170]	103
O=C(Nc1ccc(I)cc1F)c1cc(Br)ccc1NS(=O)(=O)c1ccc(OC(F)(F)F)cc1 [Compound 171]	100
O=C(NCc1cccc(C(F)(F)F)c1)c1cc(Br)ccc1NS(=O)(=O)c1ccc(OC(F)(F)F)cc1 [Compound 172]	96
O=C(Nc1ccccc1Cl)c1cc(Br)ccc1NS(=O)(=O)c1ccc(Cl)cc1 [Compound 173]	95
O=C(Nc1ccccn1)c1cc(Br)ccc1NS(=O)(=O)c1ccc(OC(F)(F)F)cc1 [Compound 174]	84
COc1ccc(NC(=O)c2cc(Br)ccc2NS(=O)(=O)c2ccc(OC(F)(F)F)cc2)c([N+](=O)[O-])c1 [Compound 175]	78
O=S(=O)(Nc1ccccc1NS(=O)(=O)c1cc(C(F)(F)F)cc(C(F)(F)F)c1)c1cc(C(F)(F)F)cc(C(F)(F)F)c1 [Compound 176]	36

same assay, conditions: Table 4, phosphate uptake, read-out: IC50

IC50 [µM]	Compound
< 50	O=C(Nc1ccc(OC(F)(F)F)cc1)Nc1ccc(Br)cc1P(=O)(O)O [Compound 177]
< 50	O=C(Nc1cccc(C(F)(F)F)c1)Nc1ccc(Br)cc1P(=O)(O)O [Compound 178]
< 50	O=C(Nc1ccc(Cl)c(Cl)c1)Nc1ccc(Br)cc1P(=O)(O)O [Compound 179]
51 to 100	O=C(Nc1cc(Cl)cc(Cl)c1)Nc1ccc(Br)cc1P(=O)(O)O [Compound 180]
51 to 100	O=C(Nc1cc(Cl)cc(C(F)(F)F)c1)Nc1ccc(Br)cc1P(=O)(O)O [Compound 181]
51 to 100	O=C(Nc1cc(C(F)(F)F)cc(C(F)(F)F)c1)Nc1ccc(Br)cc1P(=O)(O)O [Compound 182]
51 to 100	O=C(Nc1ccc(Br)cc1P(=O)(O)O)Nc1cccc2ccccc12 [Compound 183]
101 to 500	O=C(Nc1cc(F)cc(C(F)(F)F)c1)Nc1ccc(Br)cc1P(=O)(O)O [Compound 184]
101 to 500	O=C(Nc1ccc(Cl)c(C(F)(F)F)c1)Nc1ccc(Br)cc1P(=O)(O)O [Compound 185]
101 to 500	O=C(Nc1ccccc1-c1ccccc1)Nc1ccc(Br)cc1P(=O)(O)O [Compound 186]
101 to 500	O=C(Nc1ccc(Br)cc1P(=O)(O)O)Nc1cccc(Cl)c1Cl [Compound 187]
101 to 500	O=C(Nc1ccc(F)c(C(F)(F)F)c1)Nc1ccc(Br)cc1P(=O)(O)O [Compound 188]
101 to 500	O=C(Nc1cc(C(F)(F)F)ccc1F)Nc1ccc(Br)cc1P(=O)(O)O [Compound 189]
